Test results taken from patent publication US20090258069A1, “Delivery of LFA-1 antagonists to the gastrointestinal system” (priority 2008, published 2009).
Like-named read-outs stand apart in the source and are kept apart here.

Columns and labels:
[1] = test system: human mononuclear cells (PBMC) stimulated with staphylococcal enterotoxin B (SEB); experiment: cells; type: cell-based
[2] = in vivo
[3] = Plasma PK in rats after a single IV bolus dose; type: in vivo, rat; conditions: for AUC: read-out: AUC0-n
[4] = test system: SEB stimulated IL-2 release in whole human blood; experiment: cells; type: cell-based; conditions: read-out: IC50 inhibition of SEB stimulated IL-2 release in whole human blood
rabbits = experiment: Single dose ocular tolerance in rabbits; type: in vivo, rabbit; conditions: (10%)
healthy adults = experiment: Phase 1 clinical trial of Compound 12 Ophthalmic Solution, safety and tolerability; type: in vivo, human
Text: The objectives of the trial were to measure safety and tolerability, and pharmacokinetics in tear and plasma. The dosing schedule (OU; Oculus Uterque (each eye or both eyes)) was divided into 3 periods, each separated by a 72-hour wash out interval: once/day×1 day (drug one eye; placebo fellow eye), twice/day×10 days, and thrice/day×10 days, 14-day observation. Slit lamp examination of the eye, BCVA (Best Corrected Visual Acuity), STTs (Schirmer Tear Test), TBUT (Tear Break-Up Time), IOP (Intraocular pressure) were assessed at screening and the beginning and end of each period. For each cohort, masked safety data was reviewed by a Safety Committee prior to allowing dose escalation of the next cohort. A total of 2856 doses (102 drops/subject) were administered over 1148 total subject study days (41 study days/subject) in 56 eyes. All subjects in all cohorts completed the study, and no study drug doses were missed.

[5] = Acute toxicity, single dose IV in rats; conditions: rat, in vivo
Method: 4. Acute Toxicity Studies: For single dose IV in rats, the no observable adverse effect level (NOAEL) was 10 mg/kg IV. For escalating single dose IV and 7-day repeated dose with TK (toxicokinetics) in dogs, the NOAEL was 10 mg/kg IV. For single dose ocular tolerance in rabbits, the NOAEL was 3.5 mg/eye/3× per day (10%).

[6] = Single dose ocular and IV ADME with [^14C]-Compound 12 in dogs; type: in vivo, dog
Text: Following an ocular dose, the highest average [^14C]-Compound 12 levels were detected in anterior ocular tissues (see FIG. 16). […] No differences in results from male and female dogs were observed.

Pilot rat dermal study = type: in vivo; conditions: 1% lotion, ointment, gel, DMSO; TID 7 days, 10 mg/cm^2 on about 6 cm^2
Method: The safety and tolerability of prototypical dermal formulations (1% lotion, ointment, and gel) were assessed on rats given TID for seven consecutive days—approximately 6 cm^2 with 10 mg/cm^2.

[7] = Single dose ocular and IV ADME with [^14C]-Compound 12 in rats, quantitative whole body autoradiography; type: in vivo, rat; conditions: for Compound 12 Concentration, Aqueous humor / Compound 12 Concentration, Conjunctiva (bulbar) / Compound 12 Concentration, Conjunctiva (palpebral) / Compound 12 Concentration, Cornea / Compound 12 Concentration, Iris-ciliary body / Compound 12 Concentration, Lens / Compound 12 Concentration, Optic Nerve / Compound 12 Concentration, Retina and Choroid (with RPE) / Compound 12 Concentration, Sclera / Compound 12 Concentration, Vitreous Humor: ocular dosing in rats; for excretion in feces, of the administered radioactivity: 0 to 168 hours postdose
Method: Quantitative whole body […] assessments were performed.
Little or no drug is observed in systemic distribution.

[8] = test system: Chinese hamster ovary (CHO) cells; experiment: In vitro chromosomal aberration assay in CHO cells; type: cell-based; conditions: with and without metabolic activation, except single toxic dose 3500 μg/mL, 3-hour
Text: The biological relevance of this response is equivocal due to cytotoxicity.

CD-1 (ICR) BR mice = experiment: In vivo mouse bone marrow micronucleus assay; conditions: repeated IV administrations
in vivo [9] = conditions: rat, iv
[10] = Tear PK after a single topical ocular instillation in rabbits
in vivo [11] = conditions: topical or ocular
in vivo [12] = conditions: dog, iv
[13] = 30.0 mg/kg single IV bolus, from rat safety pharmacology study
[14] = rat, 10.0 mg/kg single IV bolus
[15] = 0.5 hour postdose, ocular 1 mg/eye
[16] = 0.5 hour postdose, ocular 1 mg/eye, male Sprague Dawley, above upper limit of quantification
[17] = 2 hours postdose, ocular 1 mg/eye
[18] = 8 hours postdose, ocular 1 mg/eye
[19] = 24 hours postdose, ocular 1 mg/eye
[20] = rabbit, in vivo, topical or ocular, 1.05 mg
[21] = single instillation of 0.1, 1.0 or 3.0% dose strength

CS(=O)(=O)c1cccc(C[C@H](NC(=O)c2c(Cl)cc3c(c2Cl)CCN(C(=O)c2ccc4ccoc4c2)C3)C(=O)O)c1 [Compound 12]
EC50 ([1]; read-out: EC50 Cytokine Release GM-CSF): 0.545 µM
EC50 ([1]; read-out: EC50 Cytokine Release IFNγ): 0.0016 µM
EC50 ([1]; read-out: EC50 Cytokine Release IL-1α): 0.24 µM
EC50 ([1]; read-out: EC50 Cytokine Release IL-1β): 0.36 µM
EC50 ([1]; read-out: EC50 Cytokine Release IL-2): 0.0018 µM
EC50 ([1]; read-out: EC50 Cytokine Release IL-3): 52.2 µM
EC50 ([1]; read-out: EC50 Cytokine Release IL-4): 0.143 µM
EC50 ([1]; read-out: EC50 Cytokine Release IL-5): 0.11 µM
EC50 ([1]; read-out: EC50 Cytokine Release IL-6): 43.5 µM
EC50 ([1]; read-out: EC50 Cytokine Release IL-10): 0.147 µM
EC50 ([1]; read-out: EC50 Cytokine Release IL-12p40): > 1000 µM
EC50 ([1]; read-out: EC50 Cytokine Release IL-13): 0.36 µM
EC50 ([1]; read-out: EC50 Cytokine Release IP-10): 1.16 µM
EC50 ([1]; read-out: EC50 Cytokine Release MCP-1): 0.005 µM
EC50 ([1]; read-out: EC50 Cytokine Release MIP-1α): 0.02 µM
EC50 ([1]; read-out: EC50 Cytokine Release TNF-α): 0.076 µM
IC50 ([1]; read-out: IC50 values in in vitro cell assays (cell attachment and SEB IL-2 release)): 0.002 µM
ocular dose absorbed into the systemic circulation [2]: 6.9-32%
Cmax [3, 13]: 5120 ng/mL
AUC [3, 13]: 2350 ng·h/mL
Cmax [3, 14]: 1060 ng/mL
MRT [3, 14]: 0.92 h
clearance [3, 14]: 173 mL/min/kg
half-life [3, 14]: 3.76 h
AUC [3, 14]: 728 ng·h/mL
Vd ([3]; rat, 10.0 mg/kg single IV bolus, read-out: Vss): 9.56 L/kg
IC50 [4]: 0.069 µM
NOAEL (rabbits): 3.5 mg/eye/3× per day
deaths, discontinuations, serious or severe AEs considered related to drug (healthy adults; 0.1%, 0.3%, 1% and 5% dose strengths, any dose regimen): No deaths, discontinuations, serious or severe ocular or non-ocular AEs
overall safety and tolerability, topical ocular instillation (healthy adults; dose strengths up to 5% TID): safe and well-tolerated
localized ocular irritation or infection (healthy adults; human, in vivo): no evidence of localized ocular irritation or infection
Blood pressure, heart rate, respiratory rate, temperature, body weight, and EKG results (healthy adults; throughout the trial): within normal ranges
Total lymphocyte count, CD3, CD4, and CD8 cell counts (healthy adults; throughout the trial): within normal ranges with no evidence of lymphocyte or neutrophil suppression
NOAEL [5]: 10 mg/kg
levels in conjunctiva/cornea ([6]; dog, for 16 hrs): greater than 1 micromolar
metabolites in pooled plasma, urine and fecal homogenate ([6]; up to 168 hrs post-dose, 3 mg/eye or 3 mg/dog): no metabolites detected
serum level after dermal dosing (Pilot rat dermal study): detectable in serum
Compound 12 Concentration, Aqueous humor ([7]; 0.5 hour after administration): 1770 ng Equivalents [^14C]-Compound 12/g tissue
Compound 12 Concentration, Conjunctiva (bulbar) ([7]; 0.5 hour after administration): 31500 ng Equivalents [^14C]-Compound 12/g tissue
Compound 12 Concentration, Conjunctiva (palpebral) ([7]; 0.5 hour after administration): 26300 ng Equivalents [^14C]-Compound 12/g tissue
Compound 12 Concentration, Cornea ([7]; 0.5 hour after administration): 17150 ng Equivalents [^14C]-Compound 12/g tissue
Compound 12 Concentration, Iris-ciliary body ([7]; 0.5 hour after administration): 17550 ng Equivalents [^14C]-Compound 12/g tissue
Compound 12 Concentration, Lens ([7]; 0.5 hour after administration): 38.8 ng Equivalents [^14C]-Compound 12/g tissue
Compound 12 Concentration, Optic Nerve ([7]; 0.5 hour after administration): 796 ng Equivalents [^14C]-Compound 12/g tissue
Compound 12 Concentration, Retina and Choroid (with RPE) ([7]; 0.5 hour after administration): 510 ng Equivalents [^14C]-Compound 12/g tissue
Compound 12 Concentration, Sclera ([7]; 0.5 hour after administration): 2750 ng Equivalents [^14C]-Compound 12/g tissue
Compound 12 Concentration, Vitreous Humor ([7]; 0.5 hour after administration): 1330 ng Equivalents [^14C]-Compound 12/g tissue
radioactivity concentration, eye [7, 15]: 18100 ng equivalents [^14C]-Compound 12/g
radioactivity concentration, kidney [7, 15]: 151 ng equivalents [^14C]-Compound 12/g
radioactivity concentration, liver [7, 15]: 272 ng equivalents [^14C]-Compound 12/g
radioactivity concentration, uveal tract [7, 15]: 9330 ng equivalents [^14C]-Compound 12/g
radioactivity concentration, esophageal contents [7, 16]: 399000 ng equivalents [^14C]-Compound 12/g
radioactivity concentration, nasal turbinates [7, 16]: 352000 ng equivalents [^14C]-Compound 12/g
radioactivity concentration, small intestinal contents [7, 16]: 349000 ng equivalents [^14C]-Compound 12/g
decline of radioactivity concentration, esophageal contents [7, 17]: ~100 fold
decline of radioactivity concentration, esophagus [7, 17]: approximately 50 fold
Compound 12 Concentration, Aqueous humor ([7]; 4.0 hours after administration): 116 ng Equivalents [^14C]-Compound 12/g tissue
Compound 12 Concentration, Conjunctiva (bulbar) ([7]; 4.0 hours after administration): 4480 ng Equivalents [^14C]-Compound 12/g tissue
Compound 12 Concentration, Conjunctiva (palpebral) ([7]; 4.0 hours after administration): 21830 ng Equivalents [^14C]-Compound 12/g tissue
Compound 12 Concentration, Cornea ([7]; 4.0 hours after administration): 1346 ng Equivalents [^14C]-Compound 12/g tissue
Compound 12 Concentration, Iris-ciliary body ([7]; 4.0 hours after administration): 500 ng Equivalents [^14C]-Compound 12/g tissue
Compound 12 Concentration, Lens ([7]; 4.0 hours after administration): 9.69 ng Equivalents [^14C]-Compound 12/g tissue
Compound 12 Concentration, Optic Nerve ([7]; 4.0 hours after administration): 0 ng Equivalents [^14C]-Compound 12/g tissue
Compound 12 Concentration, Retina and Choroid (with RPE) ([7]; 4.0 hours after administration): 46.7 ng Equivalents [^14C]-Compound 12/g tissue
Compound 12 Concentration, Sclera ([7]; 4.0 hours after administration): 387 ng Equivalents [^14C]-Compound 12/g tissue
Compound 12 Concentration, Vitreous Humor ([7]; 4.0 hours after administration): 183 ng Equivalents [^14C]-Compound 12/g tissue
radioactivity concentration, cecum contents [7, 18]: 57600 ng equivalents [^14C]-Compound 12/g
radioactivity concentration, large intestinal contents [7, 18]: 133000 ng equivalents [^14C]-Compound 12/g
radioactivity concentration, uveal tract ([7]; 12 hours postdose, ocular 1 mg/eye): 610 ng equivalents [^14C]-Compound 12/g
radioactivity concentration, cecum contents [7, 19]: 5870 ng equivalents [^14C]-Compound 12/g
radioactivity concentration, large intestinal contents [7, 19]: 18000 ng equivalents [^14C]-Compound 12/g
excretion in feces, of the administered radioactivity ([7]; IV administration 10 mg/kg): ~95%
excretion in feces, of the administered radioactivity ([7]; ocular administration 1 mg/eye): approximately 60%
Urinary excretion, of the administered radioactivity ([7]; ocular or IV): up to 2%
binding to melanin ([7]; pigmented vs albino rats): did not preferentially bind to melanin
levels in conjunctiva/cornea ([7]; rat, for 16 hrs): > 100 nM
metabolites in pooled plasma, urine and fecal homogenates ([7]; up to 168 hrs, topical ocular or IV dose): no metabolites were isolated
structural chromosomal aberrations in CHO cells [8]: negative
mouse bone marrow micronucleus assay (CD-1 (ICR) BR mice): negative
NOAEL at 13 week (in vivo [9]): 30 mg/kg
AUC [10, 20]: 183000 ng·h/mL
Cmax [10, 20]: 314000 ng/mL
time of return of tear concentration to baseline [10, 21]: ≤ 4 h
time to maximal mean tear concentration [10, 21]: ≤ 30 min
AUC (in vivo [11]; 0.105 mg): 5.19 ± 5.39 ng·h/mL
Cmax (in vivo [11]; 0.105 mg): 11.7 ± 8.8 ng/mL
AUC (in vivo [11]; 0.35 mg): 7.35 ± 1.52 ng·h/mL
Cmax (in vivo [11]; 0.35 mg): 13.1 ± 2.12 ng/mL
NOAEL at 4 week (in vivo [12]): 10 mg/kg
